Laboratory results: paper PMC4830886, “Extended evaluation on the ES-D3 cell differentiation assay combined with the BeWo transport model, to predict relative developmental toxicity of triazole compounds” (Archives of Toxicology, 2015)

What was measured:
[1] = tested on: BeWo b30 cell layers; assay: in vitro BeWo transport model (placental transfer); settings: BeWo cells, 50 μM (25 nmol) apical, at 90 min
Experimental: (§1) To study placental transfer of test compounds, BeWo transport experiments were performed as described previously (Li et al. [2013]). Briefly, BeWo b30 cells (passages 27–45) were cultured in DMEM (Zwijndrecht, The Netherlands), supplemented with 10 % (v/v) heat-inactivated FCS (HyClone-Perbio, Etten-Leur, The Netherlands), 10,000 U/ml penicillin, 10 mg/ml streptomycin and 2 mM L-glutamine. The cells were seeded at a density of 1 × 10^5 cells/cm^2 on transwell® polycarbonate membranes (12 mm diameter, 0.4 μm pore size) (VWR International BV, Amsterdam, The Netherlands) coated with human placental collagen. The medium (0.5-ml apical compartment, 1.5-ml basolateral compartment) was replaced daily. At day 6 postseeding, the BeWo b30 cell layers were used for transport experiments. The barrier-forming capacity of the BeWo cell layers was evaluated by measuring the transepithelial electrical resistance (TEER) of the cell monolayer using a Millicell ERS-2 Volt-Ohm Meter (Millipore, USA) at day 6 postseeding as described previously (Li et al. [2013]). Only the cell layers showing TEER values between 80 and 100 Ω cm^2 were used for transport experiments.
(§2) Transport experiments were initiated by adding 0.5 ml of transport buffer Hank’s balanced salt solution (HBSS, Invitrogen, Breda, The Netherlands) containing the test compound, being 0594, 0595, 0596, 0599, 0600 and 0618, dissolved in DMSO (final solvent concentration 0.5 % DMSO), at concentration of 50 μM, to the apical compartment and 1.5 ml transport buffer to the basolateral compartment. Subsequently, the plate was incubated in a humidified atmosphere with 5 % CO2 at 37 °C. After 15, 30, 60 and 90 min, a sample of 0.2 ml was taken from the basolateral compartment and replaced by an equal volume of transport buffer. At the end of each experiment, a 0.2-ml sample was also taken from the apical compartment. Subsequently, the filters with the BeWo b30 cell layers were washed three times with PBS, cut out of the insert, dissolved in 0.25 ml 65 % (v/v) methanol and sonificated for 15 min in a Bandelin Sonorex RK100 (Berlin, Germany) in order to determine the amount of compound accumulated in the cells. After each experiment, mass balance calculations were performed. In each transport study, amoxicillin and antipyrine were included as control and reference compounds. Amoxicillin transport was included to assess for monolayer integrity since it is a compound known to be transported only to a limited extent across the placenta, whereas antipyrine was included as a control for optimal transport and a reference compound to enable calculation of relative transport rates (Li et al. [2013]). The transport of the six test compounds, as well as the reference compounds amoxicillin and antipyrine, through the permeable membrane of the transwell filter in the absence of BeWo cells was determined as well. […] For each test compound, three independent experiments were performed, with three technical replicates per experiment.
(§3) Samples were analyzed using high-performance liquid chromatography (HPLC) to quantify the amount of test compound in order to determine the transport rate and to perform mass balance calculations. The HPLC system used consisted of a Waters (Milford, MA) 600 controller and a 600 pump, equipped with a photodiode array detector set to record absorption of wavelengths between 200 and 400 nm. A Waters 717 plus autosampler was used for sample injection. The temperature of the autosampler was kept at 7 °C.
(§4) For analysis of all compounds, 50 μl sample was injected to a C18 5 μm reverse-phase column (150 mm × 4.6 mm I.D.) with a guard column (7.5 mm × 4.6 mm I.D.) (Alltech, Bergen op Zoom, The Netherlands). The mobile phase used for analysis of all the test compounds consisted of (A) 0.1 % trifluoroacetic acid in nanopure water and (B) HPLC-grade acetonitrile. Elution was at a flow rate of 0.8 ml/min, starting at 22 % B with a linear increase to 100 % B in 8 min.

[2] = in vitro BeWo transport model (placental transfer); settings: human
Experimental: as §1, §2, §3, §4

SMILES | Intracellular accumulation (% of added amount) [1] | Papp at 30 min, 50 μM [2] [nm/s]
OC(c1cccnc1)c1c(-c2ccc(F)cc2F)noc1-c1ccc(Cl)cc1F (stereo not shown) [compound 0594, [5-(4-Chloro-2-fluoro-phenyl)-3-(2,4-difluoro-phenyl)-isoxazol-4-yl]-pyridin-3-yl-methanol] | 24 % of added amount | 115 ± 26
OC(c1cccnc1)c1c(-c2ccc(F)cc2F)csc1-c1ccc(F)cc1F (stereo not shown) [compound 0595, [2,4-Bis-(2,4-difluoro-phenyl)-thiophen-3-yl]-pyridin-3-yl-methanol] | 79 % of added amount | 30 ± 4
CC(c1nc(-c2ccc(C#N)cc2)cs1)C(O)(Cn1cncn1)c1ccc(F)cc1 (stereo not shown) [compound 0596, 4-{2-[2-(4-Fluoro-phenyl)-2-hydroxy-1-methyl-3-[1,2,4]triazol-1-yl-propyl]-thiazol-4-yl}-benzonitrile] | 12 % of added amount | 244 ± 27
CC(c1nc(-c2ccc(C#N)cc2)cs1)C(O)(Cn1ccnc1)c1ccc(F)cc1 (stereo not shown) [compound 0599, 4-[2-[2-(4-Fluorophenyl)-2-hydroxy-3-imidazol-1-yl-1-methyl-propyl]thiazol-4-yl]benzonitrile] | 22 % of added amount | 184 ± 11
CC1CC(C)OC(Cn2cncn2)(c2ccc(Oc3ccc(Cl)cc3)cc2Cl)O1 (stereo not shown) [compound 0600, 1-[[2-[2-Chloro-4-(4-chlorophenoxy)phenyl]-4,6-dimethyl-1,3-dioxan-2-yl]methyl]-1,2,4-triazole] | 66 % of added amount | 79 ± 10
